Assay results published in patent US20110178104A1, “Anti-Heparin Compounds” (POLYMEDIX INC., priority 2010, published 2011).
≈ marks a conversion by molar mass, not a printed value.

Key:
[1] = Cytotoxicity colorimetric assay, NIH/3T3; assay type: cell-based, mouse; details: mouse, NIH/3T3 cells, one hour in serum-free media
In short: (§1)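 HepG2 cells (3×10^4/well, MEM + 10% FBS) and NIH/3T3 cells (2×10^4/well, DMEM + 10% BCS) were exposed to compound for 1 h in serum-free medium. Viability read by tetrazolium-to-formazan bioreduction after return to serum medium; EC50 from a four-parameter logistic fit.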

tinzaparin = test: FXa amidolytic assay (Example 10), tinzaparin; details: read-out: Tinzap FXa EC50; tinzaparin 0.1 ug/ml; human antithrombin, bovine Factor Xa
enoxaparin [2] = test: FXa amidolytic assay (Example 10), enoxaparin; details: read-out: Enox FXa EC50; enoxaparin 0.1 ug/ml; human antithrombin, bovine Factor Xa
[3] = Cytotoxicity colorimetric assay, HepG2; assay type: cell-based, human; design: Cytotoxicity HepG2, percent printed in parentheses after the concentration: concentration or dose not given beside the values; details: human, HepG2 cells, one hour in serum-free media
In short: as §1

[4] = test system: isolated human erythrocytes; test: cells; assay type: cell-based; details: human RBC, 1 hour at 37° C.; for EC50: Homo sapiens, Erythrocyte, 1 h, read-out: Hemolysis EC50
In short: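 Test agent was serially diluted two-fold over 0.48–1000 µg/ml and incubated for 1 h at 37 °C with shaking, using erythrocytes from pooled human blood diluted in Tris-buffered saline pH 7.4 (0.22% stock). Hemolysis was measured as supernatant absorbance at 405 nm. A four-parameter logistic equation gave EC50, and melittin served as the positive control.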

enoxaparin [5] = test: In vivo neutralization of enoxaparin in the rat; details: compared with protamine
Protocol: Compounds were tested for their ability to neutralize enoxaparin coagulation inhibition in rats. Male Sprague-Dawley rats were used in this study (Charles River Laboratories). They were ten-weeks-old at the start of the study and their weights ranged from 319-362 g. Enoxaparin (2 mg/kg) was administered by IV injection to groups of six rats. After 3 min, saline, protamine or a test compound was administered by IV injection. Blood was collected before dosing with enoxaparin, and at 1, 3, 10, 30 and 60 min after dosing with the standard and test compounds. All treatments were dosed in a volume of 1 mL/kg. Blood was collected via the orbital sinus from three rats per group. At each time point, 1 mL of blood was collected from each animal into a single tube. The blood was analyzed using an AMEX Destiny Plus Coagulation Analyzer for activated partial thromboplastin time (APTT) and anti-Factor Xa (low-molecular weight).

fondaparinux = test: FXa amidolytic assay (Example 10), fondaparinux; details: for EC50: read-out: Fondap FXa EC50, fondaparinux 0.02 μg/mL, human antithrombin, bovine Factor Xa
UFH = test: FXa amidolytic assay (Example 10), UFH; details: read-out: Heparin FXa uM EC50; UFH 0.03 units/mL; human antithrombin, bovine Factor Xa
Unfractionated heparin = test: aPTT clotting assay, UFH 0.4 U/mL in plasma (Example 10); assay type: biochemical; details: unfractionated heparin 0.4 U/mL in plasma; aPTT clotting
Protocol: aPTT clotting Assay: Unfractionated heparin was mixed with plasma at a final concentration of 0.4 U/mL (or concentration which increases aPTT time to between 120 and 300 seconds). […] The ACL Elite Hemostasis analyzer (Beckman Coulter™) was used to add aPTT reagent (HemosIL SynthASil) to supplemented plasma. Clotting was initiated by addition of CaCl2 and time to clot was recorded.

NIH/3T3 cells = test: Cytotoxicity colorimetric assay, NIH/3T3; assay type: cell-based, mouse; details: for Cytotoxicity 3T3, percent printed in parentheses after the concentration: at the concentration given
In short: as §1

HepG2 cells = test: Cytotoxicity colorimetric assay, HepG2; assay type: cell-based, human; design: Cytotoxicity HepG2, percent printed in parentheses after the concentration: concentration or dose not given beside the values; details: for Cytotoxicity HepG2, percent printed in parentheses after the concentration: at the concentration given
In short: as §1

| EC50 (tinzaparin) [nM] | EC50 (enoxaparin [2]) [nM] | EC50 (fondaparinux) [nM] | EC50 (UFH) [µM] | EC50 (Unfractionated heparin) [nM] | Compound | EC50 at 1 h [1] [µg/mL] | EC50 at 1 h [3] [µg/mL] | EC50 [4] [µg/mL] | in vivo efficacy versus LMWH by anti-factor Xa activity (summary) (enoxaparin [5]) | Cytotoxicity 3T3, percent printed in parentheses after the concentration (NIH/3T3 cells) [%] | Cytotoxicity HepG2, percent printed in parentheses after the concentration (HepG2 cells) [%] | Hemolysis EC50 [4] | Potent LMWH-antagonists with superior anti-fondaparinux activity (summary) (fondaparinux) | Cytotoxicity 3T3 EC50 (NIH/3T3 cells; one hour in serum-free media) [µg/mL] | Cytotoxicity HepG2 EC50 (HepG2 cells; one hour in serum-free media) [µg/mL] |
| --- | --- | --- | --- | --- | --- | --- | --- | --- | --- | --- | --- | --- | --- | --- | --- |
| 176 | 143 | 3860 | 0.411 | 350 | COc1cc(OC)c(C(=O)N[C@H]2CC[C@@H](NC(=O)c3ccc(OCCCCCN)cc3OCCCCCN)CC2)cc1C(=O)N[C@H]1CC[C@@H](NC(=O)c2ccc(OCCCCCN)cc2OCCCCCN)CC1 [Compound 369] | 100 (≈ 97 µM) | 280 (≈ 271 µM) | > 1000 | superior to protamine | – | – | – | – | – | – |
| 108 | 114 | 402 | – | 1980 | COc1ccc(NC(=O)[C@H](CCCNC(=N)N)NC(=O)c2cc(NC(=O)[C@H](CCCNC(=N)N)NC(=O)c3cc(NC(=O)[C@H](CCCNC(=N)N)NC(=O)c4cc(NC(=O)[C@@H](N)CCCNC(=N)N)ccc4OC)ccc3OC)ccc2OCC(=O)O)cc1C(N)=O [Compound 287] | 1000 (≈ 780 µM) | 1000 (≈ 780 µM) | – | – | 50 | 30 | no significant decrease | – | – | – |
| 67 | 120 | 263 | 0.153 | 2400 | COc1ccc(NC(=O)[C@H](CCCCN)NC(=O)c2cc(NC(=O)[C@H](CCCCN)NC(=O)c3cc(NC(=O)[C@H](CCCCN)NC(=O)c4cc(NC(=O)[C@@H](N)CCCCN)ccc4OC)ccc3OC)ccc2OCC(=O)O)cc1C(=O)N[C@@H](Cc1c[nH]c2ccccc12)C(N)=O [Compound 348] | > 1000 | > 1000 | > 1000 | superior to protamine | – | – | – | superior anti-fondaparinux activity | – | – |
| – | – | – | – | – | protamine sulfate [reference compound] | – | – | – | – | – | – | >1000 µg/mL | – | >1000 | >1000 |
| 115 | 119 | 208 | 0.292 | 720 | COC(=O)c1cccc(C(=O)N[C@@H](CCCCN)C(=O)Nc2ccc(OC)c(C(=O)N[C@@H](CCCCN)C(=O)Nc3ccc(OC)c(C(=O)N[C@@H](CCCCN)C(=O)Nc4ccc(OC)c(C(=O)N[C@@H](CCCCN)C(=O)Nc5ccc(OC)c(C(N)=O)c5)c4)c3)c2)c1 [Compound 340] | 1000 (≈ 776 µM) | 1000 (≈ 776 µM) | – | – | 60 | 60 | – | – | – | – |
| 368 | 514 | 2540 | 0.11 | 2370 | COc1ccc(NC(=O)[C@H](CCCCN)NC(=O)c2cc(NC(=O)[C@H](CCCCN)NC(=O)c3cc(NC(=O)[C@H](CCCCN)NC(=O)c4cc(NC(=O)[C@@H](N)Cc5c[nH]c6ccccc56)ccc4OC)ccc3OC)ccc2OC)cc1C(N)=O [Compound 246] | – | 60 (≈ 50.7 µM) | > 1000 | – | – | 80 | – | – | – | – |
| 113 | 67 | 1060 | 0.134 | 1030 | COc1cc(OC)c(C(=O)N[C@H]2CC[C@@H](NC(=O)c3cc(C(=O)NCCN(C)C)c(OCCCCCN)cc3OCCCCCN)CC2)cc1C(=O)N[C@H]1CC[C@@H](NC(=O)c2cc(C(=O)NCCN(C)C)c(OCCCCCN)cc2OCCCCCN)CC1 [Compound 363] | 500 (≈ 397 µM) | > 1000 | > 1000 | superior to protamine | – | – | – | superior anti-fondaparinux activity | – | – |
